Measured values published in patent US9975944B2, “Synthetic peptides for the treatment of autoimmune diseases” (TEL HASHOMER MEDICAL RESEARCH INFRASTRUCTURE AND SERVICES …, priority 2013, dated 2018).
Square brackets hold non-standard residues; d marks the D form. Ends that are not written are not given here. Cit = NC(=O)NCCC[C@H](N)C(=O)O

Key:
T cells = T cells apoptosis in PBMC of RA patients, annexin V/PI FACS; type: cell-based, human; details: 24 hours, gated on PI negative cells
Method: To assess the ability of the citrullinated peptides to affect T cells apoptosis, peripheral blood mononuclear cells of rheumatoid arthritis patients were cultured in the presence of citrullinated, non-citrullinated peptides and Infliximab for 24 hours. Cells were double-stained for annexin V-fluorescein isothiocyanate (FITC) and PI-PE (apoptosis/necrosis markers) and analyzed by FACS. The results in FIG. 8 are presented after gating for PI negative cells (live cells). The β-Fib-Cit and Cit-ME (FIGS. 8A and 8B, respectively) induced T cells apoptosis (by 20% and 18%, respectively) as compared with the non-citrullinated peptides Non-Cit-β-Fib (FIG. 8D) and Non-Cit-ME (FIG. 8E). Infliximab induced apoptosis by 28% (FIG. 8C) as compared with the medium control (FIG. 8F).

TNF-α [1] = test: TNF-α gene expression in mononuclear cells derived from synovial fluid of RA patients, real-time PCR; type: cell-based, human; details: compared to medium alone (control)
Method: To assess the effect of the Cit-ME peptide (SEQ ID NO: 1) on inflammatory related genes expression, peripheral blood mononuclear cells derived from synovial fluid rheumatoid arthritis patients were incubated with the Cit-ME multi-epitope citrullinated peptide for 24 h. The effect of the peptide on gene expression was compared also to the effect of infliximab, a TNF-α blocker, which is an antirheumatic drug that acts as an anti-inflammatory compound. […] Results were determined by real-time PCR.

CD4+CD25+Foxp3+ T cells = test: Regulatory T cell proportion in PBMC of RA patients, FACS; type: cell-based, human; details: 48 hours
Method: Given the observed immunomodulation of cytokines following incubation of peripheral blood mononuclear cells obtained from rheumatoid arthritis patients with citrullinated peptides, the citrullinated peptides were tested for their ability to exert an effect on the T regulatory population proportion. Peripheral blood mononuclear cells of rheumatoid arthritis patients were cultured in the presence of 1.25 μg/ml of the peptides (Fil-Cit, β-Fib-Cit, and Cit-ME; FIGS. 6A, 6B and 6E, respectively, and Fil-NC, β-Fib-NC and Non-Cit-ME; FIGS. 6C, 6D and 6G, respectively), and Infliximab (FIG. 6F) for 48 hours. Cells cultured with medium devoid of the peptides and Infliximab served as control (FIG. 6H). Thereafter, cells were stained for the expression of CD4, CD25, and FoxP3 and analyzed by FACS. […] Mean percentage of CD4^+CD25^+Foxp3^+ T cells in the presence of Infliximab was increased by 14% as compared to medium (FIG. 6F and FIG. 6H, respectively). Thus, citrullinated peptides are able to induce the expansion of the T regulatory cell population.

pathogenic Th17 cells = test: Pathogenic Th17 cell proportion in PBMC of RA patients, FACS; type: cell-based, human; details: 48 hours
Method: To assess ability of the citrullinated peptides to affect the pathogenic Th17 cells population proportion, peripheral blood mononuclear cells of rheumatoid arthritis patients were cultured in the presence of citrullinated peptides, non-citrullinated peptides and Infliximab for 48 hours. In the last 4 hours phorbol12-myristate 13-acetate (PMA), ionomycin and brefeldin A were added to the culture. Thereafter cells were stained with antibodies against CD3 and IL-17. As shown in FIGS. 7A-7H, significant down-regulation in the mean percentage of pathogenic Th17 cells was detected following incubation with the citrullinated peptides: decrease of 21% (Fil-Cit; E), 5% (β-Fib-Cit; F), and 26% (Cit-ME; G) as compared with the non-citrullinated matched peptides (FIG. 7A-7C, respectively). Mean percentage of pathogenic Th17 cells in the presence of Infliximab was decreased by 48% (FIG. 7H) as compared to medium (FIG. 7D).

IFN-γ = IFN-γ gene expression in peripheral blood mononuclear cells of RA patients, real-time PCR; type: cell-based, human; details: PBMC of RA patients, 24 h incubation, peptide 0.25 or 1.25 μg/ml, compared with control non-citrullinated peptides
Text: (§1) Citrullinated peptide derived from filaggrin, set forth in SEQ ID NO: 3, (HQCHQESTCitGRSRGRCGRSGS) designated Fil-Cit and citrullinated peptide derived from β-fibrinogen sequence (designated β-Fib-Cit) set forth in SEQ ID NO: 2 (CitPAPPPISGGGYCitACit) were examined for their ability to immunomodulate cytokine expression in peripheral blood mononuclear cells from rheumatoid arthritis patients. Matched non-citrullinated forms of those peptides served as control, and were designated Fil-NC and β-Fib-NC, respectively. All rheumatoid arthritis patients who participated in the study signed an informed consent and the research was approved by the Sheba Helsinki committee (approval No 9247-12-SMC). All procedures were conducted according to good clinical practice (GCP) regulations.
(§2) Peripheral blood mononuclear cells were isolated from blood samples using Ficoll-Paque density gradient centrifugation. The extracted cells were cultivated in the presence of Fil-Cit (0.25 μg/ml or 1.25 μg/ml), β-Fib-Cit (0.25 μg/ml or 1.25 μg/ml) and the control matched peptides. Total RNA was extracted 24 h after incubation with the peptides.

TGF-β = TGF-β gene expression in peripheral blood mononuclear cells of RA patients, real-time PCR; type: cell-based, human; details: for mean expression levels of TGF-β: PBMC from 6 RA patients, compared with matched non-citrullinated peptide; for TGF-β gene expression level: PBMC of RA patients, 24 h incubation, peptide 0.25 or 1.25 μg/ml, compared with control non-citrullinated peptides
Text: as §1, §2
To further investigate the ex vivo effects of the citrullinated peptides on TGF-β expression, peripheral blood mononuclear cells obtained from 6 rheumatoid arthritis patients were cultured in the presence of citrullinated or control peptides. […] Up-regulation was likewise indicated in peripheral blood mononuclear cells incubated with Fil-Cit.

TNF-α [2] = test: TNF-α gene expression in peripheral blood mononuclear cells of RA patients, real-time PCR; type: cell-based, human; details: PBMC of RA patients, 24 h incubation, peptide 0.25 or 1.25 μg/ml, compared with control non-citrullinated peptides
Text: as §1, §2

IL-17 = IL-17 gene expression in peripheral blood mononuclear cells of RA patients, real-time PCR; type: cell-based, human; details: PBMC of RA patients, 24 h incubation, peptide 0.25 or 1.25 μg/ml, compared with control non-citrullinated peptides
Text: as §1, §2

AIA rats [3] = test: Adjuvant-Induced Arthritis (AIA) in rats, paw swelling and clinical signs; type: in vivo, rat; details: AIA rats, 8 subcutaneous injections of 300 μg per rat on alternate days from day 7
[4] = test system: T cells derived from the spleen; test: Apoptosis of T cells from the spleen of AIA rats, Annexin V/PI staining; type: in vivo, rat; details: gated for PI and CD4+, two independent experiments, control 13±1%
Method: To assess apoptosis of T cells derived from the spleen of treated rats, the Annexin V/PI staining method was preformed. FIGS. 14A-14C are representative histograms of cells treated with Cit-Me (FIG. 14A), non-Cit-Me (FIG. 14B) or untreated (FIG. 14C). The histograms present apoptosis measured by Annexin V^+. First, cells were gated for PI and CD4^+ and next analyzed for percentage of Annexin-V positive cells. […] A significant increase (p<0.01) in the mean apoptotic rate was determined in cells from the spleen of Cit-ME treated rats (19.5±1.8%) in comparison with Non-Cit-ME or control (13.8±1.3% and 13±1%, respectively).

[5] = test system: CD4+CD25+FoxP3+ regulatory T cells; test: Regulatory T cells in splenocytes of AIA rats, FACS; type: in vivo, rat
Text: Splenocytes from rats at day 28 post disease induction were stained with anti-CD4-FITC, anti-CD25-APC, and anti-Foxp3-PE (eBioscience) mAbs and analyzed by FACS. In representative outputs as shown in FIG. 12A-C, Regulatory T cells subpopulation was higher in Cit-ME treated rats (9%), compared to 7% and 6.2% in Non-Cit-ME peptide and untreated rats, respectively. Statistical analysis of the results is shown in FIG. 12D (Cit-ME n=9, Non-Cit-ME n=11, untreated rats n=7).

AIA rats [6] = test: Histological signs of arthritis in ankle joints of AIA rats; type: in vivo, rat; details: day 28 post disease induction, H&E, untreated 1.75±0.41
Method: To evaluate the histological signs of arthritis, rats were sacrificed and ankle joints were collected on day 28 post disease induction. The joints were fixed immediately for 24 hours in 4% paraformaldehyde, then decalcified in rapid bone decalcifier (RDO; Apex Engineering, Plainfield, Ill., USA) for 6 hours at room temperature, and further fixed in 4% paraformaldehyde before embedding in paraffin. Sections (5 μm thick) were rehydrated in a graded ethanol series and stained with haematoxylin & eosin (H&E). FIGS. 11A to 11C show representative H&E stained joint tissue sections (magnification ×100). Arrowheads denote the infiltrated zones, scale bar=200 μm. The specimens were scored for severity of inflammation in the synovium, pannus formation, cartilage, and bone erosion. A close correlation between the clinical signs and the histopathological findings was found.

[7] = 1.25 μg/ml peptide, compared with non-citrullinated matched peptide
[8] = PMA, ionomycin and brefeldin A in last 4 hours, compared with non-citrullinated matched peptide

Substance	induction of apoptosis (T cells; compared with the medium control)	expression level of TNF-α (TNF-α [1])	increase in mean percentage of CD4+CD25+Foxp3+ T cells (CD4+CD25+Foxp3+ T cells; compared to medium)	decrease in mean percentage of pathogenic Th17 cells (pathogenic Th17 cells; compared to medium)	induction of T cells apoptosis (T cells; compared with matched non-citrullinated peptide)	IFN-γ gene expression level (IFN-γ)	mean expression levels of TGF-β (TGF-β)	TGF-β gene expression level (TGF-β)	increase in mean percentage of CD4+CD25+Foxp3+ T cells (CD4+CD25+Foxp3+ T cells; [7])	decrease in mean percentage of pathogenic Th17 cells (pathogenic Th17 cells; [8])	TNF-α gene expression level (TNF-α [2])	IL-17 gene expression level (IL-17)	clinical score post immunization (AIA rats [3])	mean apoptotic rate (Annexin-V positive cells) [4]	percentage of CD4+CD25+FoxP3+ regulatory T cells subset, statistical analysis ([5]; spleens of AIA rats, day 28, untreated 7.17±0.31)	Regulatory T cells subpopulation, representative outputs ([5]; splenocytes of AIA rats, day 28 post disease induction, untreated 6.2%)	histological inflammatory score (AIA rats [6])
Infliximab: a TNF-α blocker, an antirheumatic drug that acts as an anti-inflammatory compound [reference compound]	28%	downregulated	14%	48%													
CitPAPPPISGGGYCitACit ([Cit]PAPPPISGGGY[Cit]A[Cit]) [β-Fib-Cit]					20%	down-regulated	significantly up-regulated	significantly up-regulated	50%	5%	down-regulated	down-regulated					
VRLRSSVESTRGRSRPAPPPARGLT [Non-Cit-ME]													Reduction in clinical score	13.8±1.3%	6.97±0.22%	7%	1.28±0.6
HQCHQESTCitGRSRGRCGRSGS (HQCHQEST[Cit]GRSRGRCGRSGS; cysteine pairing not given here) [Fil-Cit, citrullinated peptide derived from filaggrin]						down-regulated	Up-regulation	significantly up-regulated	56%	21%	down-regulated	down-regulated					
